Measurements reported in patent publication US20240208950A1, “COMPOSITIONS AND METHODS FOR TREATMENT OF CERVICAL AND OVARIAN CANCER” (SOUTH DAKOTA BOARD OF REGENTS, priority 2021, published 2024).

Tests used:
SiHa cells = experiment: Cell proliferation assay (MTS), SiHa; format: cell-based, human; settings: 1-20 μM, 24 hours
Experimental: The effect of Br-ORM on CaSki and SiHa cells proliferation was performed using the MTS assay. Briefly, cells were seeded at a density of 5×10^3 cells per well in 96 well plate and allowed to stand overnight at 37° C. and 5% CO2 incubator. Next day, cells were treated with different concentrations of Br-ORM (1, 5, 10 and 20 μM). DMSO was used as a vehicle for the treatment of control cells. Twenty four hours post-treatment, 20 μL of MTS reagent (5 mg/mL) was added in each well and further incubated the plate for 2 hours in a CO2 incubator. Absorbance was taken after 2 hours at […] (SpectraMax M2 spectrophotometer, Molecular Devices, Sunnyvale, CA, USA). The experiment was performed in triplicates. Results were represented as percent viability with respect to the control group. […]
FIG. 13. […] Cell viability was assessed by MTS assay. […] Bar graphs indicating quantification of colony formation in CaSki (i), and SiHa (ii) cells of cervical cancer with respect to vehicle control. […] Briefly, cervical cancer cells were treated with Br-ORM (10 μM) for 24 hours and the apoptosis inducing effect of Br-ORM was analyzed by Annexin V staining. […] The equal loading of protein in each lane was determined by probing the blots with β-actin antibody (FIG. 13F). […] Br-ORM arrests cell cycle in G1/S phase as determined by flow cytometry. […]

[1] = test system: miR-200a in cervical cancer cells; experiment: qRT-PCR of miR-200a; format: cell-based, human; settings: qPCR, 24 hours
Experimental: RNA from cervical cancer cells was isolated using Qiagen kit and quantified using NanoDrop instrument 2000 (Thermo Scientific, Waltham, MA, USA). To analyze the expression of miR-200a in control and Br-ORM treated cells, 100 ng total RNA was reverse transcribed into cDNA using specific primers designed for miRNA analysis (Applied Biosystems, Foster City, CA, USA). The expression of this miRNAs was determined by qRT-PCR using the Taqman PCR master mixture and specific primers designed for detection of mature miRNAs (Applied Biosystems). The expression of miRNA was normalized with the expression of endogenous control, RNU6B.
Modulations of microRNAs are involved in cervical cancer development, progression and metastasis. It is reported that expression of β-catenin is directly regulated by miR-200a. Br-ORM targets β-catenin signaling, therefore, to further understand the underlying mechanisms, the expression of miR-200a following the Br-ORM treatment was evaluated.
FIG. 16. Effect of Br-ORM on HPV oncoproteins and tumor suppressor miR-200 in cervical cancer cells. […] Increase expression of tumor suppressor miR200a in cervical cancer cells treated with BR-ORM for 24 hours in comparison to non-treated controls was determined through real time PCR (FIG. 16A(v)-(vii)). […]

SMILES: COc1ccc2c(c1)OC(C)(C)C(c1ccc(Br)cc1)C2c1ccc(OCCN2CCCC2)cc1 (stereo not drawn) [ORM-Br]
- cell viability / growth (SiHa cells): inhibits the growth
- cell viability / growth (SiHa cells; listed as Br-ORM): dose dependently inhibited the cell viability
- expression of miR-200a [1]: significant (P<0.05) increase
